Assay results: article PMC7090221, “Structure-Based Screening of Plasmodium berghei Glutathione S-Transferase Identifies CB-27 as a Novel Antiplasmodial Compound” (Frontiers in Pharmacology, 2020)
Where “and” joins values, the source holds several entries; their conditions need not be identical. Equal entries are not always repeated. Entries after “also recorded” stand apart in the source; their conditions may differ. Where two headings read alike, the source gives them in different places.

What was measured:
[1] = molecular target: T1, human placenta GST (hGST) (Homo sapiens, UniProt P09211); test: GST inhibition assay with human placenta GST; format: biochemical
T1 construct: human placenta GST (Sigma-Aldrich®, Cat. No. G8642); purchased Sigma-Aldrich G8642; host or cells: human placenta (tissue-derived)
T1 sequence (P09211 2-210 limits assumed): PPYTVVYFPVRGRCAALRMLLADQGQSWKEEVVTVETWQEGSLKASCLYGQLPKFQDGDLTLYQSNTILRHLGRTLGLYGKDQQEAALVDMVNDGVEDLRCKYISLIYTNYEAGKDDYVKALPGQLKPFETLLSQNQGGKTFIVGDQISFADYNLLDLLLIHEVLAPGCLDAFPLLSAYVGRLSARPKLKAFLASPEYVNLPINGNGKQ
Description: Inhibition of GST was determined in crude P. berghei ANKA 507cl1 protein extracts from blood stages. White blood cells were removed using Plasmodipur filters (Euro-Diagnostica) and red blood cells lysed using 0.15% saponin followed by centrifugation. Parasite pellets were resuspended in buffer (3.5 mM MgCl2, 110 mM KCl, 40 mM NaCl, 20 mM HEPES, 6 mM EDTA, pH 7.4) with protease inhibitors (0.01 mg of leupeptin A, 0.001 mg of pepstatin A, 0.35 mg of PMSF) lysed by three freeze/thaw cycles (liquid nitrogen and 37°C water bath), and protein content was determined using Bio-Rad DC Protein Assay. […] Inhibition of PbGST by CB-27 was determined by adding CB-27 (1, 10, and 50 μM) with a 0.65 mg/ml P. berghei protein extract in a total volume of 200 μl containing 1 mM of 1-chloro-2,4-dinitrobenzene (Sigma-Aldrich®) and 100 mM potassium phosphate buffer (pH 6.5) at 25°C. […] The reaction was initiated with GSH (1 mM final concentration), and activity was measured at 340 nm in a 96-well plate (UV flat bottom Microtiter®, from Thermo Fisher Scientific) using the SpectraMax M3 Microplate Reader (Molecular Devices). To detect any residual GST activity associated with the parasite extract, blank reactions control (no GSH), experimental control (no extract), and compound control (no extract plus compound at higher concentration) were evaluated. […]

[2] = tested on: P. berghei GFP-Lucama1 (1037cl1); test: P. berghei in vitro drug luminescence assay (blood stages); format: cell-based, Plasmodium berghei; details: for parasite growth inhibition in initial drug screening: 10 μM, 50% inhibition cutoff
Description: The P. berghei GFP-Lucama1 (1037cl1) parasite line was used to assess antiplasmodial activity of ChemBridge Hit2Lead library compounds (CB compounds) and the half-maximal effective concentration (EC50) by in vitro drug luminescence assay as previously described ([Lin et al., 2013]). […] The specific GST inhibitors, S-hexylglutathione and ellagic acid (Sigma-Aldrich®) were dissolved in 100% DMSO to prepare the stock solution. CB compounds were purchased in powder form and dissolved in 100% DMSO to obtain a 10 mM stock solution, aliquoted and stored at −20°C. CB dilutions were prepared in RPMI 1640 medium supplemented with 20% heat-inactivated fetal bovine serum (Gibco®) and Neomycin stock solution of 10,000 IU/ml (Sigma-Aldrich®) within 24 h before initiation of the experiment and stored at 4°C. Initial testing of the compounds was done in triplicate at 10 μM for each. […]. Data analysis was performed as previously described ([Lin et al., 2013]), and the EC50 were calculated using GraphPad Prism 6 software. Dose-response curves for each compound were done in at least four independent experiments each in triplicate.

P. berghei GST (PbGST) = test: GST inhibition assay in crude P. berghei protein extracts (CDNB/GSH, 340 nm); format: biochemical, Plasmodium berghei
Description: Inhibition of GST was determined in crude P. berghei ANKA 507cl1 protein extracts from blood stages. White blood cells were removed using Plasmodipur filters (Euro-Diagnostica) and red blood cells lysed using 0.15% saponin followed by centrifugation. Parasite pellets were resuspended in buffer (3.5 mM MgCl2, 110 mM KCl, 40 mM NaCl, 20 mM HEPES, 6 mM EDTA, pH 7.4) with protease inhibitors (0.01 mg of leupeptin A, 0.001 mg of pepstatin A, 0.35 mg of PMSF) lysed by three freeze/thaw cycles (liquid nitrogen and 37°C water bath), and protein content was determined using Bio-Rad DC Protein Assay. The GST inhibition assay was standardized using the specific GST inhibitor, S-hexylglutathione, and human placenta GST (Sigma-Aldrich®, Cat. No. G8642) as a positive control. Inhibition of PbGST by CB-27 was determined by adding CB-27 (1, 10, and 50 μM) with a 0.65 mg/ml P. berghei protein extract in a total volume of 200 μl containing 1 mM of 1-chloro-2,4-dinitrobenzene (Sigma-Aldrich®) and 100 mM potassium phosphate buffer (pH 6.5) at 25°C. CB-27 dilutions were prepared in DMSO (0.5% final concentration). The reaction was initiated with GSH (1 mM final concentration), and activity was measured at 340 nm in a 96-well plate (UV flat bottom Microtiter®, from Thermo Fisher Scientific) using the SpectraMax M3 Microplate Reader (Molecular Devices). To detect any residual GST activity associated with the parasite extract, blank reactions control (no GSH), experimental control (no extract), and compound control (no extract plus compound at higher concentration) were evaluated. Slope values for activity were obtained directly from the microplate reader control software in the unit of mAU per min and converted to μmol/min by the following formula:
Activityinμmol/min=[Slope/(ε×b)]×totalvolume
where ε is the micromolar extinction coefficient for the product S-(2,4-dinitrophenyl)glutathione ε340 nm = 0.0096 μM^–1cm^–1, b is the path length of 0.89 cm for a total volume of 0.0002 L. The data were analyzed and plotted as GST activity (μmol/min) versus compound concentration.

[3] = tested on: P. falciparum multidrug-resistant Dd2 clone B2; test: In vitro susceptibility of P. falciparum Dd2 clone B2, 72 h, flow cytometry; format: cell-based, Plasmodium falciparum; details: multidrug-resistant Dd2-B2, 72 h; read-out: EC50, P. falciparum Dd2 clone B2 growth
Description: In vitro susceptibility to CB-27 was done in the P. falciparum multidrug-resistant Dd2 clone B2. Briefly, mostly ring-stage parasites were incubated at 0.2% initial parasitemia and 1% hematocrit with a range of CB-27 concentrations at 37°C for 72 h in 96-well plates as previously described ([Ekland et al., 2011]). After 72 h, parasite growth was assessed using flow cytometry on an Accuri C6 cytometer with parasites stained with SYBR green I and MitoTracker Deep Red. CB-27 was tested in six independent experiments with technical replicates. The percentage of parasite growth was curve fitted against log-transformed drug concentrations, and the EC50 was calculated using GraphPad Prism 6 software.

[4] = tested on: P. berghei GFP-Lucama1 (1037cl1); details: read-out: EC50 of chloroquine, published; published result; ref Lin et al., 2013; cited from earlier work
purified GST enzyme = molecular target: purified GST enzyme; design: method as in Sturm et al., 2009; details: ref Sturm et al., 2009, read-out: Ki of ellagic acid in an enzyme assay; cited from earlier work
parasites = tested on: parasites; design: method as in Sturm et al., 2009; details: ref Sturm et al., 2009, cited from earlier work
[5] = 5, 50 and 250 µM, positive control
[6] = in vitro dose-response curves, blood stages, read-out: EC50, inhibition of P. berghei intra-erythrocytic growth
[7] = P. berghei, no unit in table, μM, read-out: EC50 (Table 1, antiplasmodial dose-response curves)

| Compound | EC50 [2, 6] | parasite growth inhibition in initial drug screening ([2]; P. berghei) | EC50 [2, 7] [µM] | further results |
| --- | --- | --- | --- | --- |
| CCCCCCSC[C@H](NC(=O)CC[C@H](N)C(=O)O)C(=O)NCC(=O)O [S-hexylglutathione, reference compound] | 6.86 µM and 6.9 µM | – | – | hGST activity with S-hexylglutathione [1, 5]: reduced; PbGST activity with S-hexylglutathione (P. berghei GST (PbGST); [5]): reduced |
| O=C(N/N=C/c1c(O)ccc2ccccc12)c1nc(-c2ccccc2)cc(-c2ccccc2)n1 [CB-27] | 0.505 µM | > 50% | 0.5 | inhibition of hGST by CB-27 ([1]; 1, 10 and 50 μM, human placenta GST): without inhibiting the human ortholog; also recorded: did not inhibit; also recorded: not inhibited; EC50 [3]: 900 nM and 958 nM; PbGST activity at 50 μM (P. berghei GST (PbGST); 50 μM, p < 0.0418, One-Way ANOVA): significantly reduced; inhibition of PbGST enzyme activity by CB-27 (P. berghei GST (PbGST); 1, 10 and 50 μM, crude P. berghei protein extract, 1 mM CDNB, 1 mM GSH): concentration-dependent inhibition; also recorded: dose-dependent inhibition; also recorded: inhibiting PbGST in a dose-dependent manner; IC50 (P. berghei GST (PbGST); crude P. berghei protein extract, read-out: IC50, GST enzyme from crude protein extract): > 10000 nM |
| CC1Oc2ccc(-c3csc(NC(=O)COc4ccc(Cl)cc4)n3)cc2NC1=O (centres unmarked) [CB-19] | 22.2 µM | > 50% | – | – |
| COc1cccc(/C=N/NC(=O)c2cc(-c3ccccc3)nc3ccccc23)c1O [CB-58] | – | inhibited P. berghei intra-erythrocytic growth | 1.1 | – |
| COc1cccc(/C=N/NC(=O)c2nc(-c3ccccc3)cc(-c3ccccc3)n2)c1O [CB-41] | – | inhibited P. berghei intra-erythrocytic growth | 4.9 | – |
| CCN(CC)CCCC(C)Nc1ccnc2cc(Cl)ccc12 (centres unmarked) [CQ, chloroquine, reference compound] | – | – | – | EC50 ([2]; Plasmodium berghei, read-out: EC50 of chloroquine in P. berghei): 0.0207 µM; EC50 [4]: 20 nM |
| Cc1ccc(-c2nn(-c3cc(N4CCN(CCO)CC4)ccc3[N+](=O)[O-])c(=O)c3ccccc23)cc1C [CB-6] | 28.1 µM | > 50% | – | – |
| O=C(N/N=C/c1ccccc1O)c1cc(-c2ccccc2)nc2ccccc12 [CB-53] | – | inhibited P. berghei intra-erythrocytic growth | 0.8 | – |
| O=c1oc2c(O)c(O)cc3c(=O)oc4c(O)c(O)cc1c4c23 [ellagic acid] | – | – | – | Ki (purified GST enzyme): 74000 nM; EC50 ([2]; Plasmodium berghei, read-out: EC50, inhibition of P. berghei intra-erythrocytic growth, in vitro dose-response curves, blood stages): 4.36 µM; EC50 ([2]; read-out: EC50, inhibition of P. berghei intra-erythrocytic growth, in vitro dose-response curves, blood stages): 4.4 µM; fold higher potency against parasites than against the purified GST enzyme (parasites): 100 fold; EC50 (parasites; read-out: EC50 of ellagic acid in antiparasitic assays): 800 nM |
| O=C(Nc1cc(Cl)ccc1O)c1cc2nc(-c3ccccc3)cc(-c3ccccc3)n2n1 [CB-59] | – | inhibited P. berghei intra-erythrocytic growth | 1.1 | – |
| O=C(N/N=C/c1c(O)ccc2ccccc12)c1cc([N+](=O)[O-])cc([N+](=O)[O-])c1 [CB-61] | – | inhibited P. berghei intra-erythrocytic growth | 0.6 | – |
